Results as given in ChEMBL document CHEMBL4421722, “Inhibitors of protein prenyltransferases” (2013).

Species: Rattus norvegicus
Test: Inhibition of rat recombinant geranylgeranyltransferase type I expressed in Escherichia coli assessed as residual enzyme activity for geranylgeranylation of K-Ras4B at 50 uM incubated for 30 mins in presence of [3H]GGPP by scintillation counting assay relative to control

Row | Activity | Structure (SMILES)
1 | 61.3% | COc1ccc([C@@H]2CC=C(C(=O)O)[C@H](c3cccc(C)c3)N2S(=O)(=O)c2ccccc2C)cc1
2 | 55.5% | Cc1ccc([C@@H]2C[C@@H](SCCc3ccccc3)[C@H](C(=O)O)CN2S(=O)(=O)c2ccccc2)cc1
3 | 99.8% | Cc1ccc([C@H]2C(C(=O)O)=CC[C@@H](c3ccc(C)cc3)N2S(=O)(=O)c2ccccc2)cc1
4 | 53.4% | Cc1ccc([C@@H]2CC=C(C(=O)O)[C@H](c3cccc(C)c3)N2S(=O)(=O)c2ccccc2C)cc1
5 | 58.3% | CCCCS[C@@H]1C[C@@H](c2ccc(CC)cc2)N(S(=O)(=O)c2ccc(C)cc2)C[C@H]1C(=O)O
6 | 93.4% | CCCCS[C@@H]1C[C@@H](c2ccccc2)N(S(=O)(=O)c2ccc(C)cc2)C[C@H]1C(=O)O
7 | 81.4% | COc1ccc(S[C@@H]2C[C@@H](c3cccc(Br)c3)N(S(=O)(=O)c3ccc(C)cc3)C[C@H]2C(=O)O)cc1
8 | 69.5% | Cc1ccc([C@@H]2C[C@@H](SCc3ccc(C(C)(C)C)cc3)[C@H](C(=O)O)CN2S(=O)(=O)c2ccccc2C)cc1
9 | 69.2% | CCc1ccc([C@@H]2CC=C(C(=O)O)[C@H](c3ccc(Br)cc3)N2S(=O)(=O)c2ccc(C)cc2)cc1
10 | 86% | CC(=O)C1=CC[C@@H](c2cccc(Cl)c2)N(S(=O)(=O)c2ccc(C)cc2)C1
11 | 92.4% | Cc1ccc(S[C@@H]2C[C@@H](c3ccc(C)cc3)N(S(=O)(=O)c3ccccc3C)C[C@H]2C(=O)O)cc1
12 | 70% | CCCCCCS[C@@H]1C[C@@H](c2ccc(CC)cc2)N(S(=O)(=O)c2ccc(C)cc2)C[C@H]1C(=O)O
13 | 84.8% | COc1ccc([C@@H]2C[C@@H](Sc3ccccc3)[C@H](C(=O)O)CN2S(=O)(=O)c2ccccc2C)cc1
14 | 73.9% | CCCS[C@@H]1C[C@@H](c2cccc(OC)c2)N(S(=O)(=O)c2ccc(C)cc2)C[C@H]1C(=O)O
15 | 86.6% | COc1ccc([C@@H]2CC=C(C(=O)O)[C@H](c3cccc(F)c3)N2S(=O)(=O)c2ccccc2C)cc1
16 | 39.1% | Cc1ccc(S(=O)(=O)N2[C@@H](c3cccc(Br)c3)C(C(=O)O)=CC[C@H]2c2cccc(C)c2)cc1
17 | 65.9% | COc1ccc([C@@H]2C[C@@H](SCCC(C)C)[C@H](C(=O)O)CN2S(=O)(=O)c2ccccc2C)cc1
18 | 97% | COc1ccc(S[C@@H]2C[C@@H](c3ccc(OC)cc3)N(S(=O)(=O)c3ccc(C)cc3)C[C@H]2C(=O)O)cc1
19 | 77.3% | COc1ccc([C@@H]2CC=C(C(C)=O)CN2S(=O)(=O)c2ccccc2C)cc1
20 | 83.1% | COc1ccc([C@@H]2C[C@@H](SC3CCCC3)[C@H](C(=O)O)CN2S(=O)(=O)c2ccc(Cl)cc2)cc1
21 | 85.5% | Cc1ccc([C@@H]2CC=C(C(=O)O)[C@H](c3ccc(C(C)(C)C)cc3)N2S(=O)(=O)c2ccc(C)cc2)cc1
22 | 83.2% | COc1ccc([C@@H]2C[C@@H](Sc3ccc(C)cc3)[C@H](C(=O)O)CN2S(=O)(=O)c2ccc(Cl)cc2)cc1
23 | 89.3% | COc1ccc([C@@H]2CC=C(C(=O)O)[C@H](c3cccc(Cl)c3)N2S(=O)(=O)c2ccc(C)cc2)cc1
24 | 102% | CC(=O)C1=CC[C@@H](c2cccc(C)c2)N(S(=O)(=O)c2ccc(C)cc2)C1
25 | 57.3% | COc1ccc([C@@H]2C[C@@H](SCc3ccccc3)[C@H](C(=O)O)CN2S(=O)(=O)c2ccccc2)cc1
26 | 65.3% | CCOc1ccc([C@@H]2CC=C(C(=O)O)[C@H](c3cccc(C)c3)N2S(=O)(=O)c2ccc(C)cc2)cc1

Row | Activity | Structure (SMILES)
27 | 44.9% | COc1cc([C@@H]2C[C@@H](SCc3ccc(Cl)cc3)[C@H](C(=O)O)CN2S(=O)(=O)c2ccc(C)cc2)cc(OC)c1OC
28 | 62.3% | Cc1ccc([C@@H]2CC=C(C(=O)O)[C@H](c3cccc(Cl)c3)N2S(=O)(=O)c2ccccc2C)cc1
29 | 99% | COc1ccc(S[C@@H]2C[C@@H](c3ccc(C)cc3)N(S(C)(=O)=O)C[C@H]2C(=O)O)cc1
30 | 68.1% | Cc1ccc(S(=O)(=O)N2[C@@H](c3ccc(Cl)cc3)C(C(=O)O)=CC[C@H]2c2cccc(Br)c2)cc1
31 | 102% | COc1cc([C@@H]2C[C@@H](Sc3ccc(Cl)cc3)[C@H](C(=O)O)CN2S(=O)(=O)c2ccc(C)cc2)cc(OC)c1OC
32 | 65.8% | COc1cccc([C@@H]2CC=C(C(=O)O)[C@H](c3ccc(Br)cc3)N2S(=O)(=O)c2ccc(C)cc2)c1
33 | 76% | COc1ccc([C@@H]2CC=C(C(=O)O)[C@H](c3cccc(C)c3)N2S(=O)(=O)c2ccc(C)cc2)cc1OC
34 | 105% | COc1ccc([C@@H]2C[C@@H](Sc3ccc(C)cc3)[C@H](C(=O)O)CN2S(=O)(=O)c2ccc(C)cc2)cc1OC
35 | 71.6% | CCCCCCS[C@@H]1C[C@@H](c2ccc(C)cc2)N(S(=O)(=O)c2ccc(Cl)cc2)C[C@H]1C(=O)O
36 | 105% | COc1ccc([C@@H]2C[C@@H](SCc3ccccc3)[C@H](C(=O)O)CN2S(=O)(=O)c2ccc(C)cc2)cc1
37 | 66.1% | Cc1ccc([C@H]2C(C(=O)O)=CC[C@@H](c3cccc(Cl)c3)N2S(=O)(=O)c2ccc(C)cc2)cc1
38 | 77.4% | Cc1ccc(S(=O)(=O)N2C[C@@H](C(=O)O)[C@H](SCCC(C)C)C[C@H]2c2ccc3c(c2)OCO3)cc1
39 | 80.8% | COc1ccc(S[C@@H]2C[C@@H](c3ccc(OC)cc3)N(S(=O)(=O)c3ccc(Cl)cc3)C[C@H]2C(=O)O)cc1
40 | 73.4% | Cc1ccc(S(=O)(=O)N2[C@@H](c3ccc(Cl)cc3)C(C(=O)O)=CC[C@H]2c2ccc3c(c2)OCO3)cc1
41 | 96.2% | CCCCCCS[C@@H]1C[C@@H](c2ccc(OC)cc2)N(S(=O)(=O)c2ccccc2)C[C@H]1C(=O)O
42 | 92.1% | Cc1ccccc1S(=O)(=O)N1C[C@@H](C(=O)O)[C@H](SC2CCCC2)C[C@H]1c1ccc(Cl)cc1
43 | 72.8% | CCCS[C@@H]1C[C@@H](c2ccc(OC)cc2)N(S(=O)(=O)c2ccc(Cl)cc2)C[C@H]1C(=O)O
44 | 59.8% | CCCCCS[C@@H]1C[C@@H](c2ccc(Cl)cc2)N(S(=O)(=O)c2ccc(C)cc2)C[C@H]1C(=O)O
45 | 69.9% | Cc1ccc(S(=O)(=O)N2[C@@H](c3cccc(F)c3)C(C(=O)O)=CC[C@H]2c2cccc(F)c2)cc1
46 | 70.6% | Cc1ccc(S(=O)(=O)N2[C@@H](c3ccc(Br)cc3)C(C(=O)O)=CC[C@H]2c2ccc(C#N)cc2)cc1
47 | 81.6% | Cc1ccc([C@@H]2CC=C(C(=O)O)[C@H](c3ccc(C(C)(C)C)cc3)N2S(=O)(=O)c2ccccc2)cc1
48 | 75.7% | Cc1ccc([C@H]2C(C(=O)O)=CC[C@@H](c3ccc4c(c3)OCO4)N2S(=O)(=O)c2ccc(C)cc2)cc1
49 | 82.4% | Cc1ccc([C@H]2C(C(=O)O)=CC[C@@H](c3cccc(C)c3)N2S(=O)(=O)c2ccc(C)cc2)cc1
50 | 56% | Cc1ccc(S(=O)(=O)N2[C@@H](c3ccc(F)cc3)C(C(=O)O)=CC[C@H]2c2ccccc2F)cc1
51 | 53% | COc1ccc([C@@H]2C[C@@H](SCc3ccc(C(C)(C)C)cc3)[C@H](C(=O)O)CN2S(=O)(=O)c2ccccc2)cc1
52 | 54.5% | COc1ccc([C@@H]2C[C@@H](SCc3ccccc3)[C@H](C(=O)O)CN2S(=O)(=O)c2ccc(C)cc2)cc1OC

Row | Activity | Structure (SMILES)
53 | 78% | Cc1ccc([C@H]2C(C(=O)O)=CC[C@@H](c3ccc(C)cc3)N2S(C)(=O)=O)cc1
54 | 98.2% | COc1ccc([C@@H]2C[C@@H](SC3CCCC3)[C@H](C(=O)O)CN2S(=O)(=O)c2ccccc2C)cc1
55 | 84.6% | CCS[C@@H]1C[C@@H](c2ccc(CC)cc2)N(S(=O)(=O)c2ccc(C)cc2)C[C@H]1C(=O)O
56 | 107% | CCCCCS[C@@H]1C[C@@H](c2ccc(C)cc2)N(S(C)(=O)=O)C[C@H]1C(=O)O
57 | 69.5% | Cc1ccc([C@@H]2CC=C(C(=O)O)[C@H](c3ccc(Br)cc3)N2S(=O)(=O)c2ccc(Cl)cc2)cc1
58 | 87.5% | Cc1ccc([C@H]2C(C(=O)O)=CC[C@@H](c3ccccc3)N2S(=O)(=O)c2ccc(C)cc2)cc1
59 | 96.7% | C=CCS[C@@H]1C[C@@H](c2ccc(OCC)cc2)N(S(=O)(=O)c2ccc(C)cc2)C[C@H]1C(=O)O
60 | 75.1% | Cc1ccc(S(=O)(=O)N2[C@@H](c3cccc(Br)c3)C(C(=O)O)=CC[C@H]2c2ccc3c(c2)OCO3)cc1
61 | 71% | CCCS[C@@H]1C[C@@H](c2ccc(Cl)cc2)N(S(=O)(=O)c2ccc(C)cc2)C[C@H]1C(=O)O
62 | 94% | Cc1ccc(S[C@@H]2C[C@@H](c3cccc(Br)c3)N(S(=O)(=O)c3ccc(C)cc3)C[C@H]2C(=O)O)cc1
63 | 74.3% | Cc1ccc(S(=O)(=O)N2[C@@H](c3ccc(C(C)(C)C)cc3)C(C(=O)O)=CC[C@H]2c2ccc(Cl)c(Cl)c2)cc1
64 | 95.6% | COc1cc([C@@H]2C[C@@H](Sc3ccc(C)cc3)[C@H](C(=O)O)CN2S(=O)(=O)c2ccc(C)cc2)cc(OC)c1OC
65 | 68.3% | CCCCCCS[C@@H]1C[C@@H](c2ccc(OC)cc2)N(S(=O)(=O)c2ccc(Cl)cc2)C[C@H]1C(=O)O
66 | 43.5% | COc1cc([C@@H]2C[C@@H](SCCc3ccccc3)[C@H](C(=O)O)CN2S(=O)(=O)c2ccc(C)cc2)cc(OC)c1OC
67 | 71.1% | CCS[C@@H]1C[C@@H](c2ccc(OC)cc2)N(S(=O)(=O)c2ccccc2C)C[C@H]1C(=O)O
68 | 74.4% | Cc1ccc([C@@H]2CC=C(C(=O)O)[C@H](c3ccc(C(C)(C)C)cc3)N2S(=O)(=O)c2ccc(Cl)cc2)cc1
69 | 63.8% | Cc1ccc([C@@H]2CC=C(C(=O)O)[C@H](c3ccc(Cl)cc3)N2S(=O)(=O)c2ccc(Cl)cc2)cc1
70 | 97.2% | CCCCCCS[C@@H]1C[C@@H](c2ccc(OC)c(OC)c2)N(S(=O)(=O)c2ccc(C)cc2)C[C@H]1C(=O)O
71 | 93.6% | CCCCCCS[C@@H]1C[C@@H](c2cc(OC)c(OC)c(OC)c2)N(S(=O)(=O)c2ccc(C)cc2)C[C@H]1C(=O)O
72 | 73.1% | Cc1ccc(S(=O)(=O)N2[C@@H](c3ccc(Cl)cc3)C(C(=O)O)=CC[C@H]2c2ccc(C#N)cc2)cc1
73 | 43.1% | Cc1ccccc1S(=O)(=O)N1C[C@@H](C(=O)O)[C@H](SCc2ccc(C(C)(C)C)cc2)C[C@H]1c1ccc(Cl)cc1
74 | 88.8% | Cc1ccc(S[C@@H]2C[C@@H](c3cccc(Cl)c3)N(S(=O)(=O)c3ccc(C)cc3)C[C@H]2C(=O)O)cc1
75 | 72.6% | COc1ccc([C@@H]2CC=C(C(=O)O)[C@H](c3ccc(Cl)cc3)N2S(=O)(=O)c2ccc(Cl)cc2)cc1
76 | 87.1% | CCOc1ccc([C@@H]2C[C@@H](SCC)[C@H](C(=O)O)CN2S(=O)(=O)c2ccc(C)cc2)cc1
